The NIST ThermoML archive (doi:10.1021/je0602723)
Numbers after ± are expanded uncertainties. Blank lines part the entries; values can stand above or below the compound they belong to.

Assay: activity coefficient (dimensionless); of the first substance listed, at infinite dilution; xn = mol fraction of the nth substance listed
Details: Liquid, Chromatography, x1 = 0

activity coefficient (343.8 K): 3.52 ± 0.24
activity coefficient (354.2 K): 3.27 ± 0.22
activity coefficient (364.9 K): 3.06 ± 0.21
activity coefficient (375.2 K): 2.81 ± 0.19
SMILES: CCCCCCO [hexan-1-ol] + CCOS(=O)(=O)[O-].CCn1cc[n+](C)c1

activity coefficient (302.5 K): 1.49 ± 0.1
activity coefficient (312.2 K): 1.41 ± 0.09
activity coefficient (322.8 K): 1.29 ± 0.08
activity coefficient (333.4 K): 1.22 ± 0.08
activity coefficient (343.9 K): 1.15 ± 0.07
SMILES: CC(C)O [propan-2-ol] + CCOS(=O)(=O)[O-].CCn1cc[n+](C)c1

activity coefficient (301.8 K): 504 ± 35
activity coefficient (312.4 K): 445 ± 31
activity coefficient (322.9 K): 389 ± 27
activity coefficient (333.5 K): 331 ± 23
SMILES: CCCCCCCCCC [decane] + CCOS(=O)(=O)[O-].CCn1cc[n+](C)c1

activity coefficient (333.5 K): 1.94 ± 0.13
activity coefficient (343.9 K): 1.9 ± 0.13
activity coefficient (354.4 K): 1.84 ± 0.12
activity coefficient (364.8 K): 1.8 ± 0.12
activity coefficient (375.2 K): 1.74 ± 0.12
SMILES: CCC=O [propanal] + CCOS(=O)(=O)[O-].CCn1cc[n+](C)c1

activity coefficient (312.5 K): 1.93 ± 0.13
activity coefficient (333.4 K): 1.65 ± 0.11
activity coefficient (344 K): 1.56 ± 0.1
activity coefficient (354.5 K): 1.45 ± 0.1
activity coefficient (364.9 K): 1.42 ± 0.09
SMILES: CCC(C)O (configuration not stated) [butan-2-ol] + CCOS(=O)(=O)[O-].CCn1cc[n+](C)c1

activity coefficient (301.8 K): 2.98 ± 0.2
activity coefficient (312.3 K): 2.94 ± 0.2
activity coefficient (323 K): 2.88 ± 0.2
activity coefficient (333.5 K): 2.79 ± 0.19
activity coefficient (343.9 K): 2.69 ± 0.18
activity coefficient (354.4 K): 2.59 ± 0.18
activity coefficient (364.7 K): 2.5 ± 0.17
SMILES: c1ccccc1 [benzene] + CCOS(=O)(=O)[O-].CCn1cc[n+](C)c1

activity coefficient (417.2 K): 0.57 ± 0.04
activity coefficient (427.5 K): 0.41 ± 0.03
SMILES: ON=C1CCCCC1 [cyclohexanone oxime] + CCOS(=O)(=O)[O-].CCn1cc[n+](C)c1

activity coefficient (312.4 K): 0.41 ± 0.03
activity coefficient (323 K): 0.4 ± 0.03
activity coefficient (333.4 K): 0.39 ± 0.03
activity coefficient (343.8 K): 0.38 ± 0.03
activity coefficient (354.2 K): 0.36 ± 0.03
SMILES: CO [methanol] + CCOS(=O)(=O)[O-].CCn1cc[n+](C)c1

SMILES: CCCCc1ccccc1 [butylbenzene] + CCOS(=O)(=O)[O-].CCn1cc[n+](C)c1
activity coefficient (343.7 K): 28.4 ± 1.9
activity coefficient (354.3 K): 26.3 ± 1.8
activity coefficient (364.8 K): 24.7 ± 1.7
activity coefficient (375.1 K): 23.2 ± 1.6
activity coefficient (385.6 K): 21.6 ± 1.5
activity coefficient (396.1 K): 20.1 ± 1.4

activity coefficient (322.7 K): 1.65 ± 0.11
activity coefficient (333.4 K): 1.51 ± 0.1
activity coefficient (343.9 K): 1.43 ± 0.09
activity coefficient (357.2 K): 1.24 ± 0.08
activity coefficient (386 K): 1.17 ± 0.07
SMILES: CC(C)CO [2-methyl-1-propanol] + CCOS(=O)(=O)[O-].CCn1cc[n+](C)c1

activity coefficient (301.9 K): 221 ± 15
activity coefficient (312.5 K): 184 ± 13
activity coefficient (322.9 K): 148 ± 10
activity coefficient (333.5 K): 119 ± 8.2
SMILES: CCCCCCCC [octane] + CCOS(=O)(=O)[O-].CCn1cc[n+](C)c1

activity coefficient (333.4 K): 2.58 ± 0.18
activity coefficient (343.9 K): 2.36 ± 0.16
activity coefficient (354.4 K): 2.22 ± 0.15
activity coefficient (364.7 K): 2.12 ± 0.14
SMILES: CCCCCO [pentan-1-ol] + CCOS(=O)(=O)[O-].CCn1cc[n+](C)c1

activity coefficient (322.8 K): 3.47 ± 0.24
activity coefficient (333.4 K): 3.39 ± 0.23
activity coefficient (344 K): 3.35 ± 0.23
activity coefficient (354.5 K): 3.29 ± 0.22
activity coefficient (364.9 K): 3.23 ± 0.22
activity coefficient (375.3 K): 3.2 ± 0.22
activity coefficient (385.9 K): 3.14 ± 0.21
SMILES: CCCC=O [butanal] + CCOS(=O)(=O)[O-].CCn1cc[n+](C)c1

activity coefficient (344 K): 7.29 ± 0.5
activity coefficient (354.5 K): 6.88 ± 0.47
activity coefficient (364.9 K): 6.58 ± 0.45
activity coefficient (375.4 K): 6.26 ± 0.43
activity coefficient (385.9 K): 5.9 ± 0.4
SMILES: CCCC(=O)OC [methyl butanoate] + CCOS(=O)(=O)[O-].CCn1cc[n+](C)c1

activity coefficient (322.9 K): 4.73 ± 0.32
activity coefficient (333.5 K): 4.58 ± 0.31
activity coefficient (344 K): 4.38 ± 0.3
activity coefficient (354.5 K): 4.1 ± 0.28
activity coefficient (364.9 K): 3.86 ± 0.26
activity coefficient (375.3 K): 3.61 ± 0.25
SMILES: CCC(=O)OC [methyl propanoate] + CCOS(=O)(=O)[O-].CCn1cc[n+](C)c1

activity coefficient (301.8 K): 357 ± 25
activity coefficient (312.4 K): 304 ± 21
activity coefficient (322.9 K): 249 ± 17
activity coefficient (333.5 K): 200 ± 14
SMILES: CCCCCCCCC [nonane] + CCOS(=O)(=O)[O-].CCn1cc[n+](C)c1

activity coefficient (343.8 K): 16.8 ± 1.1
activity coefficient (354.3 K): 15.7 ± 1.1
activity coefficient (364.7 K): 14.9 ± 1
activity coefficient (375.1 K): 14 ± 0.95
activity coefficient (385.7 K): 13.2 ± 0.9
SMILES: CCCc1ccccc1 [propylbenzene] + CCOS(=O)(=O)[O-].CCn1cc[n+](C)c1

activity coefficient (312.2 K): 0.81 ± 0.05
activity coefficient (333.4 K): 0.8 ± 0.05
activity coefficient (343.9 K): 0.78 ± 0.05
activity coefficient (354.3 K): 0.77 ± 0.05
SMILES: CC#N [acetonitrile] + CCOS(=O)(=O)[O-].CCn1cc[n+](C)c1

activity coefficient (354.3 K): 43.5 ± 3
activity coefficient (364.8 K): 40.3 ± 2.8
activity coefficient (375.1 K): 38 ± 2.6
activity coefficient (385.7 K): 35 ± 2.4
activity coefficient (396.1 K): 32.4 ± 2.2
SMILES: CCCCCc1ccccc1 [pentylbenzene] + CCOS(=O)(=O)[O-].CCn1cc[n+](C)c1

activity coefficient (333.5 K): 5.19 ± 0.35
activity coefficient (343.9 K): 5.1 ± 0.35
activity coefficient (354.4 K): 4.96 ± 0.34
activity coefficient (364.8 K): 4.82 ± 0.33
activity coefficient (375.2 K): 4.69 ± 0.32
SMILES: CCCCC=O [pentanal] + CCOS(=O)(=O)[O-].CCn1cc[n+](C)c1

activity coefficient (412.3 K): 5.1 ± 0.35
activity coefficient (417.1 K): 6.1 ± 0.42
activity coefficient (427.1 K): 4.9 ± 0.33
SMILES: O=C1CCCCCN1 [1-aza-2-cycloheptanone] + CCOS(=O)(=O)[O-].CCn1cc[n+](C)c1

activity coefficient (303.3 K): 16.1 ± 1.1
activity coefficient (312.2 K): 15 ± 1
activity coefficient (322.8 K): 14 ± 0.96
activity coefficient (333.3 K): 13.1 ± 0.89
activity coefficient (354.2 K): 11.4 ± 0.78
SMILES: CCCCCCC=O [heptanal] + CCOS(=O)(=O)[O-].CCn1cc[n+](C)c1

SMILES: CCC(C)(C)O [2-methylbutan-2-ol] + CCOS(=O)(=O)[O-].CCn1cc[n+](C)c1
activity coefficient (302 K): 2.51 ± 0.17
activity coefficient (312.4 K): 2.44 ± 0.17
activity coefficient (333.4 K): 2.21 ± 0.15
activity coefficient (343.9 K): 2.14 ± 0.15
activity coefficient (354.4 K): 2.07 ± 0.14

activity coefficient (301.7 K): 20.1 ± 1.4
activity coefficient (312.4 K): 19.2 ± 1.3
activity coefficient (333.4 K): 17 ± 1.2
activity coefficient (343.9 K): 15.9 ± 1.1
SMILES: CCCCCC(=O)OC [methyl hexanoate] + CCOS(=O)(=O)[O-].CCn1cc[n+](C)c1

activity coefficient (303.3 K): 29.8 ± 2
activity coefficient (312.2 K): 28.3 ± 1.9
activity coefficient (322.8 K): 27.1 ± 1.9
activity coefficient (333.3 K): 26.1 ± 1.8
activity coefficient (343.8 K): 25.5 ± 1.7
SMILES: CCCCCCCC=O [octanal] + CCOS(=O)(=O)[O-].CCn1cc[n+](C)c1

activity coefficient (302.4 K): 0.86 ± 0.06
activity coefficient (322.8 K): 0.79 ± 0.05
activity coefficient (333.5 K): 0.73 ± 0.05
activity coefficient (343.9 K): 0.69 ± 0.05
activity coefficient (354.3 K): 0.67 ± 0.05
SMILES: CCO [ethanol] + CCOS(=O)(=O)[O-].CCn1cc[n+](C)c1

activity coefficient (302 K): 2.02 ± 0.14
activity coefficient (312.4 K): 1.86 ± 0.13
activity coefficient (322.9 K): 1.74 ± 0.12
activity coefficient (333.4 K): 1.64 ± 0.11
activity coefficient (343.9 K): 1.57 ± 0.1
activity coefficient (354.4 K): 1.49 ± 0.1
SMILES: CC(C)(C)O [2-methylpropan-2-ol] + CCOS(=O)(=O)[O-].CCn1cc[n+](C)c1

SMILES: Cc1ccccc1 [toluene] + CCOS(=O)(=O)[O-].CCn1cc[n+](C)c1
activity coefficient (312.3 K): 5.77 ± 0.39
activity coefficient (323 K): 5.62 ± 0.38
activity coefficient (333.5 K): 5.45 ± 0.37
activity coefficient (343.9 K): 5.29 ± 0.36
activity coefficient (354.4 K): 5.08 ± 0.35
activity coefficient (364.7 K): 4.88 ± 0.33

activity coefficient (354.3 K): 9.16 ± 0.62
activity coefficient (364.7 K): 8.71 ± 0.59
activity coefficient (375.1 K): 8.21 ± 0.56
activity coefficient (385.7 K): 7.77 ± 0.53
SMILES: CCc1ccccc1 [ethylbenzene] + CCOS(=O)(=O)[O-].CCn1cc[n+](C)c1

activity coefficient (322.8 K): 1.23 ± 0.08
activity coefficient (333.5 K): 1.12 ± 0.07
activity coefficient (343.9 K): 1.05 ± 0.07
activity coefficient (364.9 K): 0.91 ± 0.06
activity coefficient (375.4 K): 0.87 ± 0.06
SMILES: CCCO [propan-1-ol] + CCOS(=O)(=O)[O-].CCn1cc[n+](C)c1

activity coefficient (312.4 K): 2.1 ± 0.14
activity coefficient (333.4 K): 2.08 ± 0.14
activity coefficient (354.2 K): 2.06 ± 0.14
SMILES: C1COCCO1 [1,4-dioxane] + CCOS(=O)(=O)[O-].CCn1cc[n+](C)c1

activity coefficient (301.8 K): 29.8 ± 2
activity coefficient (312.4 K): 28.4 ± 1.9
activity coefficient (322.9 K): 27.1 ± 1.9
activity coefficient (333.4 K): 25.5 ± 1.8
SMILES: CCCCCCC(=O)OC [methyl heptanoate] + CCOS(=O)(=O)[O-].CCn1cc[n+](C)c1

SMILES: CC(C)=O [acetone] + CCOS(=O)(=O)[O-].CCn1cc[n+](C)c1
activity coefficient (323.1 K): 1.64 ± 0.11
activity coefficient (333.6 K): 1.63 ± 0.11
activity coefficient (343.9 K): 1.61 ± 0.11
activity coefficient (365 K): 1.56 ± 0.1
activity coefficient (375.4 K): 1.54 ± 0.1
activity coefficient (386 K): 1.5 ± 0.1

activity coefficient (333.6 K): 11.6 ± 0.79
activity coefficient (344.1 K): 10.9 ± 0.74
activity coefficient (354.5 K): 10.2 ± 0.69
activity coefficient (364.9 K): 9.42 ± 0.64
activity coefficient (375.4 K): 8.57 ± 0.58
activity coefficient (385.9 K): 7.75 ± 0.53
SMILES: CCCCC(=O)OC [methyl pentanoate] + CCOS(=O)(=O)[O-].CCn1cc[n+](C)c1

activity coefficient (312.2 K): 11.4 ± 0.78
activity coefficient (322.9 K): 11.3 ± 0.77
activity coefficient (333.4 K): 11.1 ± 0.76
SMILES: CCCCCC=O [hexanal] + CCOS(=O)(=O)[O-].CCn1cc[n+](C)c1
